Holding throughout (test): inhibition of tumour cell growth, NCI panel, 48 h
Assay [1] has as its system MDA-N.
For assay [2], the system named is OVCAR-4 ovarian.
For assay [3], the system named is LOX IMVI melanoma.
For assay [4], the system named is KM12 colon.
Assay [5] has as its system U251 CNS.
Assay [6] deals with DU-145 prostate.
Assay [7] has as its system HCT-116 colon.
In assay [8] the test system is OVCAR-5 ovarian.
Assay [9] concerns TK-10 renal.
The subject of assay [10] is SK-MEL-5 melanoma.

In brackets after ≈: the same amount, converted by molar mass. Several values for one entry are separate records, joined by “and”; a condition that tells them apart may be missing. Identical values can stand only once.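 Values below derive from 48-hour exposures of cells grown in 96-well plates, with endpoints linearly interpolated between the two concentrations bracketing the appropriate inhibition level. The concentration for 50% growth inhibition is given as GI50. Definition used: TGI = concentration required for complete inhibition of growth.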

Take `O=C(c1ccc(Cl)cc1)N(C(=S)OCCOc1ccccc1)c1ccccc1`: the TGI in [1] was found to be 33.3 µM; in assay [2] it was 40.8 µM; in assay [3], 36.1 µM; in assay [4] it was 39.4 µM; in assay [5] it was 29.7 µM; in assay [6] it was 31.7 µM. Moreover, the TGI was 30.9 µM in assay [7], 36.4 µM in assay [8] and above 100 µM in assay [9].
On to `CCOP(=O)(OCC)OC1c2[nH]cc(C(=O)OCc3ccccc3)c2-c2cc(C(=O)OC)[nH]c2C1OC` (centres undefined), for which the TGI in assay [1] was above 100 µM; in assay [2], above 100 µM; in assay [3] it was above 41.4 µM; in [10] it was above 82.8 µM; in assay [4], above 92.6 µM; in [5], above 96.6 µM. Further, the TGI was 89.8 µM in [6], above 85.4 µM in assay [7], above 96.1 µM in assay [8] and above 39.9 µM in assay [9].
Consider `CC(C)Oc1c(-c2ccc(F)cc2)c(O)c2c3c1oc(=O)n3C=CC2C` (centres undefined), for which the TGI in assay [1] came out at 27.1 µM; in assay [2], 23.3 µM; in assay [3], 28.2 µM; in [10], 22.9 µM; in assay [4] it was 34.3 µM; in assay [5] it was 30.3 µM. Further, the TGI in [6] was 51.6 µM; in assay [7], 25.5 µM; in [8] it was 62.2 µM; in assay [9], 30.7 µM.
In the case of `Cc1cc(S(=O)(=O)/N=C(\[N-]S(=O)(=O)c2cc(Cl)sc2Cl)[n+]2ccc(N(C)C)cc2)c(S)cc1Cl`, the TGI in assay [1], in assay [2], in assay [3], in assay [10], in [4] and in assay [5] was above 100 µM each time. In addition, the TGI was above 100 µM in assay [6], 55.5 µM in assay [7], above 100 µM in assay [8] and above 100 µM in [9].
With `CCCCCCCCCCCCCCCCCCOCC(O)COP(=O)(O)OCC1OC(n2ccc(N)nc2=O)C(O)C1O` (centres undefined), the TGI was above 100 µM in assay [1]; above 100 µM in assay [2]; 31.1 µM in [3]; above 100 µM in assay [10]; 41 µM in [4]; 30.2 µM in assay [5]. For the same molecule, the TGI in assay [6] is above 100 µM; in assay [7] it was above 100 µM; in assay [8], above 100 µM; in assay [9], 51.1 µM.
`O=C(OCCNC(=O)N1CC1)OCCNC(=O)N1CC1`: the TGI in assay [1], in [2], in assay [3], in [10], in [4] and in assay [5] was above 10 µM throughout. The TGI in assay [6], in [7], in [8] and in [9] was above 10 µM throughout.
For `CC1=C(C(=O)N[C@@H](CC(C)C)C(=O)O)N2C(=O)[C@@H](NC(=O)C(N)c3ccccc3)[C@H]2SC1` (some centres undefined), the TGI in assay [1], in assay [2], in assay [3], in [10], in [4] and in assay [5] was above 100 µM throughout. Besides, the TGI in [6], in assay [8] and in assay [9] was above 100 µM in each case.
`CNC1(C(=O)O)CC1`: the TGI in assay [1], in assay [2], in assay [3], in assay [10], in [4] and in assay [5] was above 100 µM each time. Further, the TGI in [6], in [7], in assay [8] and in [9] was above 100 µM in each case.
`COc1ccc(-c2oc3c(OC)c(OC)cc(O)c3c(=O)c2OC)cc1`: the TGI in assay [1], in assay [2], in assay [3], in assay [10], in [4] and in assay [5] was above 100 µM each time. Besides, the TGI in [6], in assay [7], in assay [8] and in assay [9] was above 100 µM each time.
As for `COC(=O)CC1c2ccccc2N2C(=O)Cc3c([nH]c4ccccc34)C12` (centres undefined), the TGI in assay [1], in assay [2], in assay [3], in assay [10], in [4] and in assay [5] was above 100 µM each time. In addition, the TGI in assay [6], in assay [7], in assay [8] and in [9] was above 100 µM in each case.
Turning to `CC(=O)CC1=C(OC(C)C)C2(OCCO2)C1O` (centres undefined), the TGI in assay [1], in [2], in assay [3], in [10], in assay [4] and in assay [5] was above 100 µM each time. The TGI in [6], in assay [7], in [8] and in assay [9] was above 100 µM throughout.
Turning to `CCO/C=N/C1=C(C#N)SC2=N/C(=C\c3ccccc3)C(=O)N21`, the TGI in assay [1], in assay [2], in assay [3], in assay [10], in assay [4] and in [5] was above 100 µM throughout. The TGI in assay [6], in assay [7], in assay [8] and in assay [9] was above 100 µM in each case.
For `COc1cc2c(c(OC)c1OC)-c1ccc(SC)cc1C(O)CC2` (centres undefined), the TGI in [1] was 0.461 µM; in assay [2], above 100 µM; in assay [3], 74.1 µM; in assay [10] it was 1.11 µM and 15.1 µg/mL; in assay [4], below 0.01 µM; in assay [6], above 100 µM. Further, the TGI in assay [7], in assay [8] and in [9] was above 100 µM each time. In addition, the GI50 in assay [8] was 0.249 µg/mL (≈ 0.719 µM); in assay [9] it was 14.2 µg/mL (≈ 41 µM).
Take `BrCC[N+]12CC[N+](CCBr)(CC1)C2`: the TGI in assay [1], in assay [2], in [3], in assay [10], in assay [4] and in assay [5] was above 100 µM in each case. Also, the TGI in [6], in assay [7], in assay [8] and in [9] was above 100 µM each time.
For `c1ccc(CSC2(SCc3ccccc3)CCCCC2)cc1`, the TGI in [1], in assay [2], in [3], in assay [10], in assay [4] and in [5] was above 10 µM in each case. Also, the TGI in assay [6], in assay [7] and in [9] was above 10 µM in each case.
`CSc1nc2c(c(=O)[nH]1)N=C(c1ccccc1)CC(c1ccccc1)N2` (centres undefined): the TGI in assay [1] was 46.6 µM; in assay [2], 95.2 µM; in [3], above 100 µM; in assay [10], 88.4 µM; in assay [4], 29.2 µM; in assay [5], above 100 µM. The TGI in assay [6] is above 100 µM; in assay [7], 97.5 µM; in assay [8] it was above 100 µM.
Turning to `O=C(N/N=C(/COc1ccccc1)N=Cc1cccnc1)c1ccncc1`, the TGI in assay [1], in [2], in assay [3], in assay [4], in assay [5] and in assay [6] was above 100 µM throughout. In addition, the TGI in [7], in assay [8] and in [9] was above 100 µM throughout.
`COc1ccc(/C=C2\C[C@H]3[C@@H]4CCC5=CC(=O)CC[C@]5(C)[C@H]4CC[C@]3(C)C2=O)cc1OC`: the TGI in assay [1] is above 100 µM; in assay [2], above 100 µM; in assay [3] it was above 100 µM; in assay [10], 5.45 µM; in assay [4], above 100 µM; in assay [6], above 100 µM. Further, the TGI in assay [7] and in assay [8] was above 100 µM throughout.
Turning to `COC(=O)CCC(NC(=O)OC(C)(C)C)C(=O)NC(Cc1ccc(NC(=O)CCCC(C)=O)cc1)C(=O)NC(CCC(=O)OC)C(=O)OC` (centres undefined), the TGI in assay [1], in assay [2], in [3], in assay [10], in [4] and in assay [6] was above 100 µM each time. The TGI in [7], in assay [8] and in assay [9] was above 100 µM in each case.
As to `CCOc1cc2c(c(OCC)c1O)CC[C@@H]1[C@@H]2CC[C@]2(C)[C@@H](O)CC[C@@H]12`, the TGI in assay [1] is 1.58 µM; in [2], above 100 µM; in [3], 17.1 µM; in assay [10], 21.5 µM; in assay [4], 72.5 µM; in assay [6] it was 37.4 µM. The TGI in assay [7] was 18.1 µM; in assay [8] it was above 100 µM; in [9] it was above 100 µM. Besides, the GI50 is 3.32 µM in [6] and 0.801 µM in [7].

For the origin of these results see PubChem BioAssay (NCI).
